Assay: Toxicity in iv dosed 24 hrs fasted Swiss-Webster mouse
Assay type: organism-based
Conditions: in vivo

Q: With CCN1C[C@]2(COC(=O)c3ccccc3N3C(=O)C[C@H](C)C3=O)CC[C@H](OC)[C@]34C5C[C@@H]6[C@@H](OC(C)=O)C[C@@](O)(C5[C@H]6O)[C@@](O)([C@H]13)[C@@H](OC)C24 (stereo partly drawn) as the compound, how does the LD50 read?
A: 5.7 mg/kg

Q: With CCN1C[C@]2(COC(=O)c3ccccc3N3C(=O)C[C@H](C)C3=O)CC[C@H](OC)[C@]34C5C[C@@H]6[C@@H](OC(C)=O)C[C@@](O)(C5[C@H]6OC(C)=O)[C@@](O)([C@H]13)[C@@H](OC)C24 (stereo partly drawn) as the compound, how does the LD50 read?
A: 3.3 mg/kg

Q: Which LD50 does the source give for CCN1C[C@]2(COC(=O)c3ccccc3N3C(=O)C[C@H](C)C3=O)CC[C@H](OC)[C@]34C5C[C@@H]6[C@@H](OC(C)=O)C[C@@](O)(C5[C@H]6OC)[C@@](O)([C@H]13)[C@@H](OC)C24 (stereo partly drawn) [GEYERLINE] here?
A: 6.2 mg/kg

Source: ChEMBL document CHEMBL1155567, “Three new toxic norditerpenoid alkaloids from the low larkspur Delphinium nuttallianum” (J Nat Prod, 2000)
